Molecular target: T1, CaD27 (Cyanobacterium aponinum, UniProt K9Z764)
T1 construct: gene Cyan10605_2981; thioredoxin fusion (pThio-Dan1-CaD27(-cTP)) in E. coli BL21(DE3) with pGro7 chaperones; crude lysate; Pfam PF13225 family
T1 sequence (K9Z764 1-216): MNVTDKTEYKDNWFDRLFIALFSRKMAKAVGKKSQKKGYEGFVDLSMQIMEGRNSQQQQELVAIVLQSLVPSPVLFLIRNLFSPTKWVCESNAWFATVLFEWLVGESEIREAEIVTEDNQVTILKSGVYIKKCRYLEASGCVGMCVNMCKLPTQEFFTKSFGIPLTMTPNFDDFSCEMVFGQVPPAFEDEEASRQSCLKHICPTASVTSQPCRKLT
Experiment: isomerization assay, UHPLC
Type: biochemical
Conditions: crude lysate of E. coli expressing thioredoxin-CaD27, compared with thioredoxin control

| SMILES | isomerization assay, UHPLC (product 9-cis-beta-carotene) | isomerization assay, UHPLC (products 9-cis- and 13-cis-beta-carotene, also tested in beta-carotene-accumulating E. coli) |
| --- | --- | --- |
| CC1=C(/C=C/C(C)=C/C=C/C(C)=C\C=C\C=C(C)\C=C\C=C(C)\C=C\C2=C(C)CCCC2(C)C)C(C)(C)CCC1 [13-cis-β-carotene] | thioredoxin-CaD27 converted 13-cis-β-carotene into 9-cis-β-carotene |  |
| CC1=C(/C=C/C(C)=C/C=C/C(C)=C/C=C/C=C(C)/C=C/C=C(C)/C=C/C2=C(C)CCCC2(C)C)C(C)(C)CCC1 [all-trans-β-carotene] |  | we only detected the isomerization of all-trans-β-carotene into 9-cis, and 13-cis-β-carotene |

Reference: paper PMC11449226, “Characterization of a β-carotene isomerase from the cyanobacterium Cyanobacteria aponinum” (Philosophical Transactions of the Royal Society B: …, 2024)
